Measured values from US20140163023A1, “DIHYDROPYRROLO PYRIMIDINE DERIVATIVES AS MTOR INHIBITORS” (Cellzome Limited, priority 2011, published 2014).

Assays:
[1] = biological target: T1, mTOR (Homo sapiens, UniProt P42345); test: mTOR kinobeads assay (competition binding in cell lysate, dot blot detection); conditions: 1:1 mix of Jurkat and Ramos cell lysates, read-out: Inhibition values (IC50 in μM) as determined in the kinobeads assay, mTor
T1 construct: endogenous in cells; host or cells: Jurkat (ATCC TIB-152, clone E6-1) and Ramos (ATCC CRL-1596), 1:1 lysate mix
Description: Determination of the Effect of the Compounds According to the Invention on mTOR
(§1) The compounds of the present invention as described were tested in the mTOR kinobeads assay as described below. Briefly, test compounds (at various concentrations) and the affinity matrix (1:1 mixture of beads with immobilized phenylthiazole ligand 1 and beads with immobilized phenylmorpholin-chromen ligand; WO 2009/098021) were added to cell lysate aliquots and allowed to bind to the proteins in the lysate sample. After the incubation time the beads with captured proteins were separated from the lysate. Bound proteins were then eluted and the presence of mTOR, PI3Kα, PI3Kβ, PI3Kγ, PI3Kδ and DNA-dependent protein kinase (DNA-PK) was detected and quantified using a specific antibody in a dot blot procedure and the Odyssey infrared detection system. Dose response curves for individual kinases were generated and IC50 values calculated. Kinobeads assays for PI3 kinases (WO-A 2008/015013) and for kinase selectivity profiling (WO 2009/098021) have been previously described.
(§2) Washing of Affinity Matrix
(§3) The affinity matrix was washed two times with 15 ml of 1×DP buffer containing 0.2% NP40 (IGEPAL® CA-630, Sigma, #13021) and then resupended in 5.5 ml of 1×DP buffer containing 0.2% NP40 (10% beads slurry).
(§4) 5×DP buffer: 250 mM Tris-HCl pH 7.4, 25% Glycerol, 7.5 mM MgCl2, 750 mM NaCl, 5 mM Na3VO4, filter the 5×-lysis buffer through 0.22 μm filter and store in aliquots at −80° C. The 5×DP buffer is diluted to 1×DP buffer containing 1 mM DTT and 25 mM NaF.
(§5) Preparation of Test Compounds
(§6) Stock solutions of test compounds were prepared in DMSO. In a 96 well plate 30 μl solution of diluted test compounds at 5 mM in DMSO were prepared. Starting with this solution a 1:3 dilution series (9 steps) was prepared. For control experiments (no test compound) a buffer containing 2% DMSO was used. Compound Pi-103 (Calbiochem catalogue number 528100) served as a positive control.
(§7) Cell Culture and Preparation of Cell Lysates
(§8) Jurkat cells (ATCC catalogue number TIB-152 Jurkat, clone E6-1) and Ramos cells (ATCC number CRL-1596) were grown in 1 litre Spinner flasks (Integra Biosciences, #182101) in suspension in RPMI 1640 medium (Invitrogen, #21875-034) supplemented with 10% Fetal Bovine Serum (Invitrogen) at a density between 0.15×10^6 and 1.2×10^6 cells/ml. Cells were harvested by centrifugation, washed once with 1×PBS buffer (Invitrogen, #14190-094) and cell pellets were frozen in liquid nitrogen and subsequently stored at −80° C.
(§9) Cells were homogenized in a Potter S homogenizer in lysis buffer: 50 mM Tris-HCl, 0.8% NP40, 5% glycerol, 150 mM NaCl, 1.5 mM MgCl2, 25 mM NaF, 1 mM sodium vanadate, 1 mM DTT, pH 7.5. One complete EDTA-free tablet (protease inhibitor cocktail, Roche Diagnostics, 1873580) per 25 ml buffer was added. The material was dounced 10 times using a mechanized POTTER S, transferred to 50 ml falcon tubes, incubated for 30 minutes on ice and spun down for 10 min at 20,000 g at 4° C. (10,000 rpm in Sorvall SLA600, precooled). The supernatant was transferred to an ultracentrifuge (UZ)-polycarbonate tube (Beckmann, 355654) and spun for 1 hour at 100.000 g at 4° C. (33.500 rpm in Ti50.2, precooled). The supernatant was transferred again to a fresh 50 ml falcon tube, the protein concentration was determined by a Bradford assay (BioRad) and samples containing 50 mg of protein per aliquot were prepared. The samples were immediately used for experiments or frozen in liquid nitrogen and stored frozen at −80° C.
(§10) Cell lysate (approximately 50 mg protein per plate) was thawed in a water bath at room temperature and then kept on ice. To the thawed cell lysate 1×DP 0.8% NP40 buffer containing protease inhibitors (1 tablet for 25 ml buffer; EDTA-free protease inhibitor cocktail; Roche Diagnostics 1873580) was added in order to reach a final protein concentration of 5 mg/ml total protein. For the kinobeads experiment a 1:1 mix of Jurkat and Ramos cell lysates was used. […]

[2] = biological target: T2, DNA-dependent protein kinase (DNA-PK) (Homo sapiens, UniProt P78527); test: kinobeads assay, DNA-PK; format: binding; conditions: 1:1 mix of Jurkat and Ramos cell lysates, read-out: Inhibition values (IC50 in μM) as determined in the kinobeads assay, DNA-PK
T2 construct: endogenous in cells; host or cells: Jurkat (ATCC TIB-152, clone E6-1) and Ramos (ATCC CRL-1596), 1:1 lysate mix
Description: as §1, §2, §3, §4, §5, §6, §7, §8, §9
as §10, with “used. The diluted cell lysate was stored on ice.” for “used.”

[3] = biological target: T3, PI3Kα (Homo sapiens, UniProt P42336); test: kinobeads assay, PI3Kα; format: binding; conditions: 1:1 mix of Jurkat and Ramos cell lysates, read-out: Inhibition values (IC50 in μM) as determined in the kinobeads assay, PI3Kα
T3 construct: endogenous in cells; host or cells: Jurkat (ATCC TIB-152, clone E6-1) and Ramos (ATCC CRL-1596), 1:1 lysate mix
Description: as §1, §2, §3, §4, §5, §6, §7, §8, §9
as §10, with “used. The diluted cell lysate was stored on ice.” for “used.”

[4] = biological target: T4, PI3Kγ (Homo sapiens, UniProt P48736); test: kinobeads assay, PI3Kγ; format: binding; conditions: 1:1 mix of Jurkat and Ramos cell lysates, read-out: Inhibition values (IC50 in μM) as determined in the kinobeads assay, PI3Kγ
T4 construct: endogenous in cells; host or cells: Jurkat (ATCC TIB-152, clone E6-1) and Ramos (ATCC CRL-1596), 1:1 lysate mix
Description: as §1, §2, §3, §4, §5, §6, §7, §8, §9
as §10, with “used. The diluted cell lysate was stored on ice.” for “used.”

[5] = biological target: T5, PI3Kδ (Homo sapiens, UniProt O00329); test: kinobeads assay, PI3Kδ; format: binding; conditions: 1:1 mix of Jurkat and Ramos cell lysates, read-out: Inhibition values (IC50 in μM) as determined in the kinobeads assay, PI3Kδ
T5 construct: endogenous in cells; host or cells: Jurkat (ATCC TIB-152, clone E6-1) and Ramos (ATCC CRL-1596), 1:1 lysate mix
Description: as §1, §2, §3, §4, §5, §6, §7, §8, §9
as §10, with “used. The diluted cell lysate was stored on ice.” for “used.”

[6] = biological target: T6, PI3Kβ (Homo sapiens, UniProt P42338); test: kinobeads assay, PI3Kβ; format: binding; conditions: 1:1 mix of Jurkat and Ramos cell lysates, read-out: Inhibition values (IC50 in μM) as determined in the kinobeads assay, PI3Kβ
T6 construct: endogenous in cells; host or cells: Jurkat (ATCC TIB-152, clone E6-1) and Ramos (ATCC CRL-1596), 1:1 lysate mix
Description: as §1, §2, §3, §4, §5, §6, §7, §8, §9
as §10, with “used. The diluted cell lysate was stored on ice.” for “used.”

T5 sequence (O00329 whole entry): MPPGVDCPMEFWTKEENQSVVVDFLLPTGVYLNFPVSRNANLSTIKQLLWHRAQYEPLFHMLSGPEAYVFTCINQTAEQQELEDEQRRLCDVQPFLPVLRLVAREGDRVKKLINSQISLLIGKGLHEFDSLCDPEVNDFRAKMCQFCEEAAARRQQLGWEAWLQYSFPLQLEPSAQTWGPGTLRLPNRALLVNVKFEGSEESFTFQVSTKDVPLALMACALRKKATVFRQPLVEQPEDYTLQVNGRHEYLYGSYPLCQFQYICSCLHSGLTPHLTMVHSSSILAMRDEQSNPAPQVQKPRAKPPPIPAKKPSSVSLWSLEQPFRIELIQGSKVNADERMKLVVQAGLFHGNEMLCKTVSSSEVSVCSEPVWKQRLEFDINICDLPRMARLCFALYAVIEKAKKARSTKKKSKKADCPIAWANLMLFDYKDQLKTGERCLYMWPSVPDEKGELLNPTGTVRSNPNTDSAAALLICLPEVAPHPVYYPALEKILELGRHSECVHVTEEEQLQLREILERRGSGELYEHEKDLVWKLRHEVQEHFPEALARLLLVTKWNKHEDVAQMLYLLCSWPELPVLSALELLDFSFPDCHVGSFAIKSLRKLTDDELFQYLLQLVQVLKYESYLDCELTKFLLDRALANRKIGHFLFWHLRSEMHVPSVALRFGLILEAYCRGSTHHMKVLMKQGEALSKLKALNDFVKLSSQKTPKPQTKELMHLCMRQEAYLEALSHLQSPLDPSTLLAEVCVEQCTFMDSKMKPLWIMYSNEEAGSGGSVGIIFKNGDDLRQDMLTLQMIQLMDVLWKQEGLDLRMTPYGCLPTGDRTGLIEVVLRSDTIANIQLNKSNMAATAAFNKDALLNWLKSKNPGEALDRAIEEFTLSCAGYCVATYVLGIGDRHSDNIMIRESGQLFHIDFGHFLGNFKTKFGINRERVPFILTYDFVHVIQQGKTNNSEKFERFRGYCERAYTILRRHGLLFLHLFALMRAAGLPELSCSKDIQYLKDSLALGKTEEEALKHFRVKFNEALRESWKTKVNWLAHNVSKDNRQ
T5 sequence (P27986 whole entry partner): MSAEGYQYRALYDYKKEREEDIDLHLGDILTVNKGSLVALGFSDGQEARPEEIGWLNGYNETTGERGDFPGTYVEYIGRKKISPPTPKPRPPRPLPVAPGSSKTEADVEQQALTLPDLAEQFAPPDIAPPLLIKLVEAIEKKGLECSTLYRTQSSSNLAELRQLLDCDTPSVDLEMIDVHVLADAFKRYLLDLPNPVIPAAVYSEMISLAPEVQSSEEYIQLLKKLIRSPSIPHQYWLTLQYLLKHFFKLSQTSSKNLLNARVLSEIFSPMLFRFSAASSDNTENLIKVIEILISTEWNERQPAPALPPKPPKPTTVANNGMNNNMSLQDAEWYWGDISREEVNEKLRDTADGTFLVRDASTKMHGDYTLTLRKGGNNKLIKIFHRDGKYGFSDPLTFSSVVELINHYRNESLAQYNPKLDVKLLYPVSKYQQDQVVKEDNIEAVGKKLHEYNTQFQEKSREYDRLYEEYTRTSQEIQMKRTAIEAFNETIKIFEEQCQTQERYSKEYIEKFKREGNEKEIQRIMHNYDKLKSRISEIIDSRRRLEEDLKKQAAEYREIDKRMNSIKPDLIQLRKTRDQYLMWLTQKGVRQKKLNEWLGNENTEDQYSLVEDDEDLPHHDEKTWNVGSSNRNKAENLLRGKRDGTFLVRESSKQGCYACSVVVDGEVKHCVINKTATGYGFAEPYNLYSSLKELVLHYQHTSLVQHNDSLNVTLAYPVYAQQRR
T6 sequence (P42338 whole entry): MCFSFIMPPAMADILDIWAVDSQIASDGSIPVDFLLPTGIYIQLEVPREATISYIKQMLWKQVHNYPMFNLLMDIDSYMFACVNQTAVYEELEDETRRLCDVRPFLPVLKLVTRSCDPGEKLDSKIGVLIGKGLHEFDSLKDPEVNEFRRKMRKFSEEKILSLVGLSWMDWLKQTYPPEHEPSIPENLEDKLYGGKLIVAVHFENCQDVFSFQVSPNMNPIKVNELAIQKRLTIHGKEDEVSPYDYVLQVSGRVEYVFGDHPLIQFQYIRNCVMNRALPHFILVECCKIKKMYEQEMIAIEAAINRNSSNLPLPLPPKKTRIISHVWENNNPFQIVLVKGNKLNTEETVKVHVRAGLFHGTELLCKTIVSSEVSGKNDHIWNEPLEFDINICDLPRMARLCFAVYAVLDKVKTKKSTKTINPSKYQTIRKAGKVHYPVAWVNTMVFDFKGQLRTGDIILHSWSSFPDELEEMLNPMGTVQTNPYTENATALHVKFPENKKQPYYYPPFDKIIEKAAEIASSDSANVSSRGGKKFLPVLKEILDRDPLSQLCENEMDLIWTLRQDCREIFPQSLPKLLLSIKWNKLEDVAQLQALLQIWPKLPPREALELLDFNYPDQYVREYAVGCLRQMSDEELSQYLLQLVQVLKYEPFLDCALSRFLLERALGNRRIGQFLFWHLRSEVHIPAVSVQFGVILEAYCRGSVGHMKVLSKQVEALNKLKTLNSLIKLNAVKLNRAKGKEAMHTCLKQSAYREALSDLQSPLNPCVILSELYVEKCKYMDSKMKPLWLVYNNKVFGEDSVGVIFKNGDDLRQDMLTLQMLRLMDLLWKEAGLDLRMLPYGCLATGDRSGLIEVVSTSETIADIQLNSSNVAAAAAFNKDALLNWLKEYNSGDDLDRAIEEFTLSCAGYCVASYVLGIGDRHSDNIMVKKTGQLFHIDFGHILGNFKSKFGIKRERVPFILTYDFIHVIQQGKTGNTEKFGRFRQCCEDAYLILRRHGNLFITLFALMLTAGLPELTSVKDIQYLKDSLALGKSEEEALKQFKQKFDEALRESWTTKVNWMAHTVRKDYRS
T6 sequence (P27986 whole entry partner): as the sequence (P27986 whole entry partner) above
T4 sequence (P48736 whole entry): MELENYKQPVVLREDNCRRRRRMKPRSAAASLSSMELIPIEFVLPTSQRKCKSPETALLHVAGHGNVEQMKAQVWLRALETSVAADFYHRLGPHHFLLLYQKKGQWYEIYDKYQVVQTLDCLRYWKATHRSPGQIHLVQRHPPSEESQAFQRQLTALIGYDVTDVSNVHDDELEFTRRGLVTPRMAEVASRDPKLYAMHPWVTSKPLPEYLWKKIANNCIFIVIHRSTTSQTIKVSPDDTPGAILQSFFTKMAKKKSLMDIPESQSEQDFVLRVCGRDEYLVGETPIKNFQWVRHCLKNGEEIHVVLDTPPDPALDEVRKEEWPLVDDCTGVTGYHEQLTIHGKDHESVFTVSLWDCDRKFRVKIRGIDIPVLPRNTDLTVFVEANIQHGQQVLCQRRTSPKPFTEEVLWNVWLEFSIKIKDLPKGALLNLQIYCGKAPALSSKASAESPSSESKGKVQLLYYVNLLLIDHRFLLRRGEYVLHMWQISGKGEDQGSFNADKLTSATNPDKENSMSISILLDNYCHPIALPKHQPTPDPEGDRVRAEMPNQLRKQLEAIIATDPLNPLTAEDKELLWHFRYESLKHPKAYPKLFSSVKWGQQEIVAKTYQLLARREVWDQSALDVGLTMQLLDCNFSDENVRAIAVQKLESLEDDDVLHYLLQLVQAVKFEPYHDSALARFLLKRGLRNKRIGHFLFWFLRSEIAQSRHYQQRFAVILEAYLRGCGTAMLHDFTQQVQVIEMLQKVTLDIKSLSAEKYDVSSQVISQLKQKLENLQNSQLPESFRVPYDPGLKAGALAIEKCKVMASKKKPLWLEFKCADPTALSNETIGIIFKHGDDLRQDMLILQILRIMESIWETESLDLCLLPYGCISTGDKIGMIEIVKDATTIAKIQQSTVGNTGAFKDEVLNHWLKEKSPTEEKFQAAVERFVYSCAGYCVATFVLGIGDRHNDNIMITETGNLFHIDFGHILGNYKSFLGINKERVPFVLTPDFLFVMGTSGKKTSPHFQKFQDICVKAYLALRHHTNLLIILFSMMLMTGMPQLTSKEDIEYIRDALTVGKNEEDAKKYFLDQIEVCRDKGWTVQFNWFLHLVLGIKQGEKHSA
T3 sequence (P42336 whole entry): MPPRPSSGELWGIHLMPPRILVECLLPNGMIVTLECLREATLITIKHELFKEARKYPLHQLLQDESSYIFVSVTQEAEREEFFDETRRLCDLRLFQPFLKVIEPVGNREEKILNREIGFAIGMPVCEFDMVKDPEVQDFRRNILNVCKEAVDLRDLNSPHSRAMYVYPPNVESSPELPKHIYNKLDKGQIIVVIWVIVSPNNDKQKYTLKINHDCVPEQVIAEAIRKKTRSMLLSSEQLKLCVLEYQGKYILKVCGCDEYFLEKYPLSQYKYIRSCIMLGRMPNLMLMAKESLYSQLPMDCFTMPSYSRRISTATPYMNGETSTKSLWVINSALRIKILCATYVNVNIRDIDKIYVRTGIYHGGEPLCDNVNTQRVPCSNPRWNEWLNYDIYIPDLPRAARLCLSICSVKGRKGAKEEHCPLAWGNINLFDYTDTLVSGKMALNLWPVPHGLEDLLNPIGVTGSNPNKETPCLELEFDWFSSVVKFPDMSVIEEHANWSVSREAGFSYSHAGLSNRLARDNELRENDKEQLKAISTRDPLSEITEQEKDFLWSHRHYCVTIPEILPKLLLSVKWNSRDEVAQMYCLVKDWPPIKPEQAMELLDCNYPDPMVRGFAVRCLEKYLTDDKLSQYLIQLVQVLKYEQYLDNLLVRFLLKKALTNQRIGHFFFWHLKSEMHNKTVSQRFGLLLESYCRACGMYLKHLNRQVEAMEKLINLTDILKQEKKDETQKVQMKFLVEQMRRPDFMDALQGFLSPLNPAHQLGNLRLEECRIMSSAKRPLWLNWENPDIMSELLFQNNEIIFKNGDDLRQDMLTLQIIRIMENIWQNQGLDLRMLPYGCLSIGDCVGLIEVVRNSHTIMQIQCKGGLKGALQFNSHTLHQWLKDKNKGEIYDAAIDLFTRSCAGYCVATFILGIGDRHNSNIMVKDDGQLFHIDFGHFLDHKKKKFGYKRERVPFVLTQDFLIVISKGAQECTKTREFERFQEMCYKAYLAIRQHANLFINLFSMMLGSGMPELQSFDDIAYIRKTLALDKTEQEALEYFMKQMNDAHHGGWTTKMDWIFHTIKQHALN
T3 sequence (P27986 whole entry partner): as the sequence (P27986 whole entry partner) above

Row | IC50 [1] | IC50 [2] | IC50 [3] | IC50 [4] | IC50 [5] | IC50 [6] | SMILES
1 | 0.1 to 1 µM | > 100 µM | 10 to 100 µM | 10 to 100 µM | 10 to 100 µM | 10 to 100 µM | C[C@H]1COCCN1c1nc2c(c(-c3ccc(NC(=O)NC4CC4)cc3)n1)CNC2 [Example 1, (S)-1-cyclopropyl-3-(4-(2-(3-methylmorpholino)-6,7-dihydro-5H-pyrrolo[3,4-d]pyrimidin-4-yl)phenyl)urea]
2 | 0.1 to 1 µM | 10 to 100 µM | 10 to 100 µM | 10 to 100 µM | 10 to 100 µM | 10 to 100 µM | CCNC(=O)Nc1ccc(-c2nc(N3CCOC[C@@H]3C)nc3c2CNC3)cc1 [Example 2, (S)-1-ethyl-3-(4-(2-(3-methylmorpholino)-6,7-dihydro-5H-pyrrolo[3,4-d]pyrimidin-4-yl)phenyl)urea]
3 | 0.1 to 1 µM | > 100 µM | 10 to 100 µM | 10 to 100 µM | 10 to 100 µM | 10 to 100 µM | CCNC(=O)Nc1ccc(-c2nc(N3CCOC[C@@H]3C)nc3c2CN(C=O)C3)cc1 [Example 3, (S)-1-ethyl-3-(4-(6-formyl-2-(3-methylmorpholino)-6,7-dihydro-5H-pyrrolo[3,4-d]pyrimidin-4-yl)phenyl)urea]
4 | 0.1 to 1 µM | 10 to 100 µM | 1 to 10 µM | 10 to 100 µM | 10 to 100 µM | 10 to 100 µM | CCNC(=O)Nc1ccc(-c2nc(N3CCOCC3)nc3c2CNC3)cc1 [Example 4, 1-ethyl-3-(4-(2-morpholino-6,7-dihydro-5H-pyrrolo[3,4-d]pyrimidin-4-yl)phenyl)urea]
5 | 0.1 to 1 µM | 10 to 100 µM | 10 to 100 µM | 10 to 100 µM | 10 to 100 µM | 10 to 100 µM | O=C(Nc1ccc(-c2nc(N3CCOCC3)nc3c2CNC3)cc1)NC1CC1 [Example 5, 1-cyclopropyl-3-(4-(2-morpholino-6,7-dihydro-5H-pyrrolo[3,4-d]pyrimidin-4-yl)phenyl)urea]
6 | 0.1 to 1 µM | 10 to 100 µM | 1 to 10 µM | 1 to 10 µM | 1 to 10 µM | 1 to 10 µM | NC(=O)Nc1ccc(-c2nc(N3CCOCC3)nc3c2CNC3)cc1 [Example 6, 1-(4-(2-morpholino-6,7-dihydro-5H-pyrrolo[3,4-d]pyrimidin-4-yl)phenyl)urea]
7 | 1 to 10 µM | > 100 µM | > 100 µM | > 100 µM | > 100 µM | > 100 µM | CCNC(=O)Nc1ccc(-c2nc(N3CCOCC3)nc3c2CN(C(=O)OCC)C3)cc1 [Example 7, ethyl 4-(4-(3-ethylureido)phenyl)-2-morpholino-5H-pyrrolo[3,4-d]pyrimidine-6(7H)-carboxylate]
8 | 10 to 100 µM | > 100 µM | > 100 µM | > 100 µM | > 100 µM | > 100 µM | CCNC(=O)Nc1ccc(-c2nc(N3CCOC[C@@H]3C)nc3c2CN(C(=O)OCC)C3)cc1 [Example 8, (S)-ethyl 4-(4-(3-ethylureido)phenyl)-2-(3-methylmorpholino)-5H-pyrrolo[3,4-d]pyrimidine-6(7H)-carboxylate]
9 | 1 to 10 µM | > 100 µM | > 100 µM | > 100 µM | > 100 µM | > 100 µM | CCOC(=O)N1Cc2nc(N3CCOC[C@@H]3C)nc(-c3ccc(NC(=O)NC4CC4)cc3)c2C1 [Example 9, (S)-ethyl 4-(4-(3-cyclopropylureido)phenyl)-2-(3-methylmorpholino)-5H-pyrrolo[3,4-d]pyrimidine-6(7H)-carboxylate]
10 | 10 to 100 µM | > 100 µM | 10 to 100 µM | > 100 µM | > 100 µM | > 100 µM | CCOC(=O)Nc1ccc(-c2nc(N3CCOC[C@@H]3C)nc3c2CNC3)cc1 [Example 10, (S)-ethyl (4-(2-(3-methylmorpholino)-6,7-dihydro-5H-pyrrolo[3,4-d]pyrimidin-4-yl)phenyl)carbamate]
11 | 0.1 to 1 µM | 10 to 100 µM | 10 to 100 µM | 10 to 100 µM | 10 to 100 µM | 10 to 100 µM | C[C@H]1COCCN1c1nc2c(c(-c3ccc(NC(=O)NC4CC4)cc3)n1)CN(C)C2 [Example 11, (S)-1-cyclopropyl-3-(4-(6-methyl-2-(3-methylmorpholino)-6,7-dihydro-5H-pyrrolo[3,4-d]pyrimidin-4-yl)phenyl)urea]
12 | 1 to 10 µM | > 100 µM | 10 to 100 µM | > 100 µM | 10 to 100 µM | 10 to 100 µM | CC(=O)N1Cc2nc(N3CCOC[C@@H]3C)nc(-c3ccc(NC(=O)NC4CC4)cc3)c2C1 [Example 12, (S)-1-(4-(6-acetyl-2-(3-methylmorpholino)-6,7-dihydro-5H-pyrrolo[3,4-d]pyrimidin-4-yl)phenyl)-3-cyclopropylurea]
13 | 0.1 to 1 µM | > 100 µM | > 100 µM | > 100 µM | > 100 µM | > 100 µM | CC(C)N1Cc2nc(N3CCOC[C@@H]3C)nc(-c3ccc(NC(=O)NC4CC4)cc3)c2C1 [Example 13, (S)-1-cyclopropyl-3-(4-(6-isopropyl-2-(3-methylmorpholino)-6,7-dihydro-5H-pyrrolo[3,4-d]pyrimidin-4-yl)phenyl)urea]
14 | 1 to 10 µM | > 100 µM | > 100 µM | > 100 µM | > 100 µM | > 100 µM | C[C@H]1COCCN1c1nc2c(c(-c3ccc(NC(=O)NC4CC4)cc3)n1)CN(C1CC1)C2 [Example 14, (S)-1-cyclopropyl-3-(4-(6-cyclopropyl-2-(3-methylmorpholino)-6,7-dihydro-5H-pyrrolo[3,4-d]pyrimidin-4-yl)phenyl)urea]
